The record followed here is US12145947B2, “Pyrimidine based modulators and uses thereof” (Quanta Therapeutics, Inc., priority 2022, dated 2024).

The test addresses T1, GST-tagged KRAS-G12D (2-169) (Homo sapiens, UniProt P01116, G12D).
T1 construct: GST-tagged KRAS-G12D (2-169, Reaction Biology, MSC-11-539); purchased Reaction Biology MSC-11-539 (KRAS G12D); MSC-11-502 (SOS1cat)
The test is described as follows: Nucleotide exchange assay (NEA), SOS-mediated, HTRF, KRAS G12D. It counts as biochemical. Conditions: Table 4; IC50 extracted at 30 min. The text has this: This activity is tightly regulated by GTPase activating proteins (GAPs) and guanine nucleotide exchange factors (GEFs). GEFs, such as SOS1/2, activate Ras proteins by exchanging GDP for GTP, thus returning Ras to its active conformation (Simanshu, Nissley, & McCormick, 2017). […] Homogenous time resolved fluorescence (HTRF) was used to detect SOS-mediated binding of a fluorescent GTP analog, GTP-DY-647P1 (Jena Biosciences NU-820-647P1) to GST-tagged KRAS-G12D (2-169, Reaction Biology, MSC-11-539) or to GST-tagged KRAS-G12V (2-169, Reaction Biology, MSC-11-540).
GST-tagged KRAS-G12D (2-169) and anti-GST MAb Tb Cryptate Gold (CisBio 61GSTTLB) were diluted into assay buffer (20 mM HEPES, pH 7.3, 150 mM NaCl, 5 mM MgCl2, 0.05% BSA 0.0025% NP40, 1 mM DTT) to prepare a 2.5× donor solution. 5× compound was added to the protein mixture and incubated for 1 h at RT. 2.5× acceptor solution containing SOSIcat (564-1049, Reaction Biology MSC-11-502) and GTP-DY-647P1 were then added to the donor KRAS mixture such that the final concentration of the reaction contained 5 nM GST-tagged KRAS-G12D (2-169), 20 nM SOScat, and 150 nM GTP. The reaction was monitored using at RT with the Envision multimode plate reader (Ex/Em 337/665, […]) up to 90 minutes at 5 minute intervals. To monitor KRAS-G12V Sos-mediated nucleotide exchange, 80 nM SOS was added to reaction instead of 20 nM. All other components were the same as previously described. Data was blanked to reactions without SOS1 and % inhibition was calculated such that DMSO only=0% and blank=100%. Curve fitting was done using a 4 parameter fit. Reported IC50 values were extracted at 30 min and 90 min for the KRAS-G12D and KRAS-G12V assays, respectively.
Curve fitting was done using a 4 parameter fit. NEA KRAS G12D IC50 (uM) values of selected compounds are depicted in Table 2 with compounds having a value <0.01 uM as ++++; >0.01 uM to 0.1 uM as +++; >0.1 uM to 1 uM as ++; >1 uM to 20 uM as +; and >20 uM as NA.
(In general: TR-FRET usually uses a lanthanide donor and a delayed reading to cut background.)

T1 sequence (P01116 2-169 isoform P01116-2 G12D): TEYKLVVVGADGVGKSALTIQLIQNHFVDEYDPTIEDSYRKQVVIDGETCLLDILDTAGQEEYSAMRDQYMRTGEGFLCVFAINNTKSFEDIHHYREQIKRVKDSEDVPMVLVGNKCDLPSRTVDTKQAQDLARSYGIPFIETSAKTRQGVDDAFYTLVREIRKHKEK

With `N#Cc1c(N2C[C@H]3CC[C@@H](C2)N3)nc(OCc2n[nH]cc2C(F)F)nc1N1CC2(CCc3sc(N)c(C#N)c32)C1` [Compound 109, 2-amino-1′-[5-cyano-6-[(1R,5S)-3,8-diazabicyclo[3.2.1]octan-3-yl]-2-[[4-(difluoromethyl)-1H-pyrazol-3-yl]methoxy]pyrimidin-4-yl]spiro[5,6-dihydrocyclopenta[b]thiophene-4,3′-azetidine]-3-carbonitrile], the IC50 (usually the concentration at which inhibition is half-maximal) was 10 to 100 nM.

In the case of `N#Cc1c(N2CCCOCC2)nc(OC[C@@]23CCCN2C[C@H](F)C3)nc1N1CC2(CCc3sc(N)c(C#N)c32)C1` [Compound 110, 2-amino-1′-[5-cyano-2-[[(2R,8S)-2-fluoro-1,2,3,5,6,7-hexahydropyrrolizin-8-yl]methoxy]-6-(1,4-oxazepan-4-yl)pyrimidin-4-yl]spiro[5,6-dihydrocyclopenta[b]thiophene-4,3′-azetidine]-3-carbonitrile], the IC50 lay in the range of 10 to 100 nM.

`N#Cc1c(N2CCSc3ncccc3C2)nc(OC[C@@]23CCCN2C[C@H](F)C3)nc1N1CC2(CCc3sc(N)c(C#N)c32)C1` [Compound 111, 2-amino-1′-[5-cyano-6-(3,5-dihydro-2H-pyrido[3,2-f][1,4]thiazepin-4-yl)-2-[[(2R,8S)-2-fluoro-1,2,3,5,6,7-hexahydropyrrolizin-8-yl]methoxy]pyrimidin-4-yl]spiro[5,6-dihydrocyclopenta[b]thiophene-4,3′-azetidine]-3-carbonitrile] registered an IC50 of 10 to 100 nM.
